Data from ChEMBL document CHEMBL1201862, “PubChem BioAssay data set” (2004).
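The compound was tested at five concentrations on cells cultured in 96-well plates, with a 48-hour exposure period. At the GI50, growth is halved.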 The source made the active and inactive calls. Cut-off read from the data, not from the text of the source: active = GI50 up to about 1.1 µM and inactive = higher. Where a SMILES comes first, the peptide text is derived from it. The star is where a group is joined. Cbz = O=C(OCc1ccccc1)*; Boc = CC(C)(C)OC(=O)*; tBu = CC(C)(C)*

How the values were obtained:
Test in all cases: inhibition of tumour cell growth, NCI panel, 48 h
[1] = system: A549
[2] = system: CAKI-1
[3] = system: DU-145
[4] = system: HCT-15
[5] = system: K562
[6] = system: MDA-N
[7] = system: NCI-H226
[8] = system: NCI-H522
[9] = system: NCI/ADR-RES
[10] = system: OVCAR-4
[11] = system: OVCAR-8
[12] = system: PC-3
[13] = system: RXF 393
[14] = system: SF-268
[15] = system: SK-OV-3
[16] = system: SW-620
[17] = system: TK-10
[18] = system: UACC-257
[19] = system: UACC-62

SMILES | GI50 [1] | GI50 [2] | GI50 [3] | GI50 [4] | GI50 [5] | GI50 [6] | GI50 [7] | GI50 [8] | GI50 [9] | GI50 [10] | GI50 [11] | GI50 [12] | GI50 [13] | GI50 [14] | GI50 [15] | GI50 [16] | GI50 [17] | GI50 [18] | GI50 [19]
CCOC(=O)C1=C(OS(=O)(=O)C(F)(F)F)CCCC1 | > 100 µM (inactive) | > 100 µM (inactive) | > 100 µM (inactive) | > 100 µM | > 100 µM (inactive) | > 100 µM (inactive) | > 100 µM (inactive) | > 100 µM (inactive) | > 100 µM (inactive) | > 100 µM (inactive) | > 100 µM (inactive) | > 100 µM (inactive) | > 100 µM (inactive) | > 100 µM (inactive) | > 100 µM (inactive) | > 100 µM (inactive) | > 100 µM (inactive) | > 100 µM (inactive) | > 100 µM (inactive)
CC(OC(C)(C)C)C(NC(=O)C(CCCCNC(=O)OC(C)(C)C)NC(=O)C(Cc1c[nH]c2ccccc12)NC(=O)C(Cc1ccccc1)NC(=O)OCc1ccccc1)C(=O)NC(Cc1ccccc1)C(=O)O (stereo not given) (Cbz-FWK(Boc)T(tBu)F-OH; configuration not given here) | > 100 µM (inactive) | > 100 µM (inactive) | 61.1 µM (inactive) | 73.6 µM | 28.8 µM (inactive) | 38.5 µM (inactive) | 37.3 µM (inactive) | 27.9 µM (inactive) | > 100 µM (inactive) | 91 µM (inactive) | 95.1 µM (inactive) | 34.8 µM (inactive) | > 100 µM (inactive) | 45.7 µM (inactive) | 39.5 µM (inactive) | 75.2 µM (inactive) | > 100 µM (inactive) | > 100 µM (inactive) | 21 µM (inactive)
N#Cc1nnc2c3c(-c4ccc(Cl)cc4)c(C#N)c(O)nc3nn2c1N | 21.1 µM (inactive) | 5.6 µM (inactive) | 3.88 µM (inactive) | 8.83 µM | 7.33 µM (inactive) | 3.61 µM (inactive) | 9.55 µM (inactive) | 1.62 µM (inactive) | 18.4 µM (inactive) | 14.9 µM (inactive) | 4.92 µM (inactive) | 1.45 µM (inactive) | 3.98 µM (inactive) | 3.26 µM (inactive) | 4.61 µM (inactive) | 5.46 µM (inactive) | 22.6 µM (inactive) | 15.4 µM (inactive) | 1.85 µM (inactive)
C[C@@H](NC(=O)Cn1c(Cl)nc2ccccc21)c1ccccc1 | > 100 µM (inactive) | > 100 µM (inactive) | > 100 µM (inactive) | > 100 µM | > 100 µM (inactive) | > 100 µM (inactive) | > 100 µM (inactive) | 38.2 µM (inactive) | 33 µM (inactive) | > 100 µM (inactive) | > 100 µM (inactive) | > 100 µM (inactive) | > 100 µM (inactive) | > 100 µM (inactive) | > 100 µM (inactive) | > 100 µM (inactive) | > 100 µM (inactive) | > 100 µM (inactive) | > 100 µM (inactive)
O=[N+]([O-])/C(Cl)=C(\Nc1ccccc1)C(Cl)=C(Cl)Cl | 32.7 µM (inactive) | 48.3 µM (inactive) | 36.8 µM (inactive) | 25.4 µM | 25 µM (inactive) | 36 µM (inactive) | 26.5 µM (inactive) | 42.7 µM (inactive) | 16 µM (inactive) | 41.6 µM (inactive) | 23.5 µM (inactive) | 38.3 µM (inactive) | 37.3 µM (inactive) | 32.1 µM (inactive) | 43.7 µM (inactive) |  | 56.6 µM (inactive) | 49.8 µM (inactive) | 26.2 µM (inactive)
CCOP(=O)(CC(=O)C1CC1)OCC | > 100 µM (inactive) | > 100 µM (inactive) | > 100 µM (inactive) | > 100 µM | > 100 µM (inactive) | > 100 µM (inactive) | > 100 µM (inactive) | > 100 µM (inactive) | > 100 µM (inactive) | > 100 µM (inactive) | > 100 µM (inactive) | > 100 µM (inactive) | 0.01 µM (active) | > 100 µM (inactive) | > 100 µM (inactive) | > 100 µM (inactive) | > 100 µM (inactive) | > 100 µM (inactive) | > 100 µM (inactive)
CC(=O)CCCCC(=O)Nc1ccc(CC(NC(=O)OC(C)(C)C)C(=O)NCC(=O)OCc2ccccc2)cc1 (stereo not given) | 53.7 µM (inactive) | 15.7 µM (inactive) | 32.7 µM (inactive) | 62.8 µM | 17.3 µM (inactive) | 21 µM (inactive) | 34.8 µM (inactive) | 23.6 µM (inactive) | > 100 µM (inactive) | 13.7 µM (inactive) | 20 µM (inactive) | 14.4 µM (inactive) | 25.2 µM (inactive) | 22.4 µM (inactive) | 23 µM (inactive) | 16.6 µM (inactive) | 63.1 µM (inactive) |  | > 10 µM (inactive)
O=S(=O)(O)c1cc(O)c2c(/N=C\c3ccccc3O)cc(S(=O)(=O)O)cc2c1 | > 100 µM (inactive) | > 100 µM (inactive) | > 100 µM (inactive) | > 100 µM | 86.5 µM (inactive) | > 100 µM (inactive) | > 100 µM (inactive) | > 100 µM (inactive) | > 100 µM (inactive) | > 100 µM (inactive) | > 100 µM (inactive) | > 100 µM (inactive) | > 100 µM (inactive) | > 100 µM (inactive) | > 100 µM (inactive) | > 100 µM (inactive) | > 100 µM (inactive) | > 100 µM (inactive) | > 100 µM (inactive)
